# Experimental data published in patent US20140315883A1, “6H-IMIDAZO[1,5-a]PYRROLO[2,3-e]PYRAZINE COMPOUNDS” (ABBVIE INC., priority 2013, published 2014).
# Biological target: T1, Syk (Homo sapiens, UniProt P43405)
# T1 construct: Purified Syk catalytic domain (aa 356-635 with a C-terminal His-tag purified in-house); His-tag (C); made in house
# Test: In vitro Syk kinase activity measured by trFRET
# Type: biochemical
# Conditions: Syk catalytic domain, 0.001 mM ATP
# Protocol: In Vitro Syk Kinase Activity Measured by Time-Resolved Fluorescence Resonance Energy Transfer (trFRET)
# After about 60 min incubation at rt, the reaction was quenched by addition of EDTA (final concentration: 100 mM) and developed by addition of revelation reagents (final approximate concentrations: 30 mM HEPES pH 7.0, 0.06% BSA, 0.006% Tween-20, 0.24 M KF, 80 ng/mL PT66K (europium labeled anti-phosphotyrosine antibody cat #61T66KLB Cisbio, Bedford, Mass.) and 0.6 μg/mL SAXL (Phycolink streptavidin-allophycocyanin acceptor, cat #PJ25S, Prozyme, San Leandro, Calif.). The developed reaction was incubated in the dark either at about 4° C. for about 14 h or for about 60 min at rt, then read via a time-resolved fluorescence detector (Rubystar, BMG) using a 337 nm laser for excitation and monitoring emission wavelengths at 665 nm. Within the linear range of the assay, the observed signal at 665 nm was directly related to phosphorylated product and can be used to calculate the IC50 values.
row,SMILES,IC50
1,"CC(=O)N1C[C@H](O)C[C@@H]1c1nc(-c2ccc(O[C@H](C)C3CC3)cc2)c2cnc3[nH]ccc3n12 (single isomer, unassigned) [Example #2]",30 to 100 nM
2,CC(=O)N1C[C@H](O)C[C@@H]1c1nc(-c2ccsc2)c2cnc3[nH]ccc3n12 [A.1.1],10 to 30 nM
3,"CCOc1ccc(-c2nc([C@H]3C[C@@H](O)CN3C(C)=O)n3c2cnc2[nH]ccc23)cc1 [A.1.2, 1-((2R,4R)-2-(3-(4-ethoxyphenyl)-6H-imidazo[1,5-a]pyrrolo[2,3-e]pyrazin-1-yl)-4-hydroxypyrrolidin-1-yl)ethanone]",10 to 30 nM
4,"CC(=O)N1C[C@H](O)C[C@@H]1c1nc(-c2ccc(OCCn3nccn3)cc2)c2cnc3[nH]ccc3n12 [A.1.3, 1-((2R,4R)-2-(3-(4-(2-(2H-1,2,3-triazol-2-yl)ethoxy)phenyl)-6H-imidazo[1,5-a]pyrrolo[2,3-e]pyrazin-1-yl)-4-hydroxypyrrolidin-1-yl)ethanone]",30 to 100 nM
5,"CC(=O)N1C[C@H](O)C[C@@H]1c1nc(-c2ccc(C(F)F)cc2)c2cnc3[nH]ccc3n12 [A.1.5, 1-((2R,4R)-2-(3-(4-(difluoromethyl)phenyl)-6H-imidazo[1,5-a]pyrrolo[2,3-e]pyrazin-1-yl)-4-hydroxypyrrolidin-1-yl)ethanone]",30 to 100 nM
6,CC(=O)N1C[C@H](O)C[C@@H]1c1nc(-c2ccc(C3(C)COC3)cc2)c2cnc3[nH]ccc3n12 [A.1.6],< 10 nM
7,"CC(=O)N1C[C@H](O)C[C@@H]1c1nc(-c2ccc(OCC3(C)COC3)cc2)c2cnc3[nH]ccc3n12 [D.1.1, 1-((2R,4R)-4-hydroxy-2-(3-(4-((3-methyloxetan-3-yl)methoxy)phenyl)-6H-imidazo[1,5-a]pyrrolo[2,3-e]pyrazin-1-yl)pyrrolidin-1-yl)ethanone]",10 to 30 nM
8,"CC(=O)N1C[C@H](O)C[C@@H]1c1nc(-c2csc(CO)c2)c2cnc3[nH]ccc3n12 [D.1.2, 1-((2R,4R)-4-hydroxy-2-(3-(5-(hydroxymethyl)thiophen-3-yl)-6H-imidazo[1,5-a]pyrrolo[2,3-e]pyrazin-1-yl)pyrrolidin-1-yl)ethanone]",10 to 30 nM
9,"CC(=O)N1C[C@H](O)C[C@@H]1c1nc(-c2ccc(OCC3CC3)cc2)c2cnc3[nH]ccc3n12 [D.1.3, 1-((2R,4R)-2-(3-(4-(cyclopropylmethoxy)phenyl)-6H-imidazo[1,5-a]pyrrolo[2,3-e]pyrazin-1-yl)-4-hydroxypyrrolidin-1-yl)ethanone]",10 to 30 nM
10,COc1ccc(-c2nc([C@H]3C[C@@H](O)CN3C(=O)CF)n3c2cnc2[nH]ccc23)cc1 [E.1.1],10 to 30 nM
11,"COCCOc1ccc(-c2nc([C@H]3C[C@@H](O)CN3C(=O)CF)n3c2cnc2[nH]ccc23)cc1 [E.1.2, 2-fluoro-1-((2R,4R)-4-hydroxy-2-(3-(4-(2-methoxyethoxy)phenyl)-6H-imidazo[1,5-a]pyrrolo[2,3-e]pyrazin-1-yl)pyrrolidin-1-yl)ethanone]",10 to 30 nM
12,"CNc1ccc(-c2nc([C@H]3C[C@@H](O)CN3C(C)=O)n3c2cnc2[nH]ccc23)cc1 [Example #1, 1-((2R,4R)-4-Hydroxy-2-(3-(4-(methylamino)phenyl)-6H-imidazo[1,5-a]pyrrolo[2,3-e]pyrazin-1-yl)pyrrolidin-1-yl)ethanone]",10 to 30 nM
13,"COc1ccc(-c2nc([C@H]3C[C@@H](O)CN3C(C)=O)n3c2cnc2[nH]ccc23)s1 [Example #3, 1-((2R,4R)-4-Hydroxy-2-(3-(5-methoxythiophen-2-yl)-6H-imidazo[1,5-a]pyrrolo[2,3-e]pyrazin-1-yl)pyrrolidin-1-yl)ethanone]",10 to 30 nM
14,"CC(=O)N1C[C@H](O)C[C@@H]1c1nc(-c2cnc(C(C)(C)C)s2)c2cnc3[nH]ccc3n12 [Example #4, 1-((2R,4R)-2-(3-(2-(tert-Butyl)thiazol-5-yl)-6H-imidazo[1,5-a]pyrrolo[2,3-e]pyrazin-1-yl)-4-hydroxypyrrolidin-1-yl)ethanone]",30 to 100 nM

# Now from value to compound:
row,IC50,SMILES
1,< 10 nM,"CC(=O)N1C[C@H](O)C[C@@H]1c1nc(-c2ccc(N3CCO[C@H](C)C3)cc2)c2cnc3[nH]ccc3n12 [Example #5 (R), 1-((2R,4R)-4-hydroxy-2-(3-(4-((R)-2-methylmorpholino)phenyl)-6H-imidazo[1,5-a]pyrrolo[2,3-e]pyrazin-1-yl)pyrrolidin-1-yl)ethanone]"
2,< 10 nM,"CC(=O)N1C[C@H](O)C[C@@H]1c1nc(-c2ccc(N3CCO[C@@H](C)C3)cc2)c2cnc3[nH]ccc3n12 [Example #5 (S), 1-((2R,4R)-4-Hydroxy-2-(3-(4-((S)-2-methylmorpholino)phenyl)-6H-imidazo[1,5-a]pyrrolo[2,3-e]pyrazin-1-yl)pyrrolidin-1-yl)ethanone]"
3,30 to 100 nM,"COCc1ccc(-c2nc([C@H]3C[C@@H](O)CN3C(C)=O)n3c2cnc2[nH]ccc23)cc1 [Example #7, 1-((2R,4R)-4-Hydroxy-2-(3-(4-(methoxymethyl)phenyl)-6H-imidazo[1,5-a]pyrrolo[2,3-e]pyrazin-1-yl)pyrrolidin-1-yl)ethanone]"
4,30 to 100 nM,"CC(=O)N1C[C@H](O)C[C@@H]1c1nc(-c2ccc(Cn3nccn3)cc2)c2cnc3[nH]ccc3n12 [Example #8, 1-((2R,4R)-2-(3-(4-((2H-1,2,3-Triazol-2-yl)methyl)phenyl)-6H-imidazo[1,5-a]pyrrolo[2,3-e]pyrazin-1-yl)-4-hydroxypyrrolidin-1-yl)ethanone]"
5,30 to 100 nM,"CC(=O)N1C[C@H](O)C[C@@H]1c1nc(-c2ccc(OCC(F)(F)F)cc2)c2cnc3[nH]ccc3n12 [Example #9, 1-((2R,4R)-4-Hydroxy-2-(3-(4-(2,2,2-trifluoroethoxy)phenyl)-6H-imidazo[1,5-a]pyrrolo[2,3-e]pyrazin-1-yl)pyrrolidin-1-yl)ethanone]"
6,10 to 30 nM,"CC(=O)N1C[C@H](O)C[C@@H]1c1nc(-c2ccc(NC(C)C)cc2)c2cnc3[nH]ccc3n12 [Example #10, 1-((2R,4R)-4-Hydroxy-2-(3-(4-(isopropylamino)phenyl)-6H-imidazo[1,5-a]pyrrolo[2,3-e]pyrazin-1-yl)pyrrolidin-1-yl)ethanone]"
7,30 to 100 nM,"CC(=O)N1C[C@H](O)C[C@@H]1c1nc(-c2ccc(NC(C)C)cc2)c2cnc3[nH]cc(C)c3n12 [Example #11, 1-((2R,4R)-4-Hydroxy-2-(3-(4-(isopropylamino)phenyl)-8-methyl-6H-imidazo[1,5-a]pyrrolo[2,3-e]pyrazin-1-yl)pyrrolidin-1-yl)ethanone]"
8,30 to 100 nM,"CC(=O)N1C[C@H](O)C[C@@H]1c1nc(-c2ccc(C(F)(F)F)cc2)c2cnc3[nH]ccc3n12 [Example #A.1.4, 1-((2R,4R)-4-hydroxy-2-(3-(4-(trifluoromethyl)phenyl)-6H-imidazo[1,5-a]pyrrolo[2,3-e]pyrazin-1-yl)pyrrolidin-1-yl)ethanone]"
9,10 to 30 nM,"CCNc1ccc(-c2nc([C@H]3C[C@@H](O)CN3C(C)=O)n3c2cnc2[nH]ccc23)cc1 [Example #F.1, 1-((2R,4R)-2-(3-(4-(ethylamino)phenyl)-6H-imidazo[1,5-a]pyrrolo[2,3-e]pyrazin-1-yl)-4-hydroxypyrrolidin-1-yl)ethanone]"
10,10 to 30 nM,"COc1ccc(-c2nc([C@H]3C[C@@H](O)CN3C(C)=O)n3c2cnc2[nH]ccc23)cc1 [Example #F.1.4, 1-((2R,4R)-4-hydroxy-2-(3-(4-methoxyphenyl)-6H-imidazo[1,5-a]pyrrolo[2,3-e]pyrazin-1-yl)pyrrolidin-1-yl)ethanone]"
11,> 100 nM,"CC(=O)N1C[C@H](O)C[C@@H]1c1nc(-c2ccc(C(=O)N3CCC(F)(F)CC3)cc2)c2cnc3[nH]ccc3n12 [F.1.1, 1-((2R,4R)-2-(3-(4-(4,4-difluoropiperidine-1-carbonyl)phenyl)-6H-imidazo[1,5-a]pyrrolo[2,3-e]pyrazin-1-yl)-4-hydroxypyrrolidin-1-yl)ethanone]"
12,< 10 nM,"CC(=O)N1C[C@H](O)C[C@@H]1c1nc(-c2ccc(N3CCCCC3)cc2)c2cnc3[nH]ccc3n12 [F.1.1.13, 1-((2R,4R)-4-hydroxy-2-(3-(4-(piperidin-1-yl)phenyl)-6H-imidazo[1,5-a]pyrrolo[2,3-e]pyrazin-1-yl)pyrrolidin-1-yl)ethanone]"
13,10 to 30 nM,"CO[C@H](C)c1ccc(-c2nc([C@H]3C[C@@H](O)CN3C(C)=O)n3c2cnc2[nH]ccc23)cc1 [F.1.2, 1-((2R,4R)-4-hydroxy-2-(3-(4-((R)-1-methoxyethyl)phenyl)-6H-imidazo[1,5-a]pyrrolo[2,3-e]pyrazin-1-yl)pyrrolidin-1-yl)ethanone]"
14,< 10 nM,"CO[C@@H](C)c1ccc(-c2nc([C@H]3C[C@@H](O)CN3C(C)=O)n3c2cnc2[nH]ccc23)cc1 [F.1.3, 1-((2R,4R)-4-hydroxy-2-(3-(4-((S)-1-methoxyethyl)phenyl)-6H-imidazo[1,5-a]pyrrolo[2,3-e]pyrazin-1-yl)pyrrolidin-1-yl)ethanone]"
15,10 to 30 nM,"CC(=O)N1C[C@H](O)C[C@@H]1c1nc(-c2ccc(C(C)(C)O)c(F)c2)c2cnc3[nH]ccc3n12 [F.1.5, 1-((2R,4R)-2-(3-(3-fluoro-4-(2-hydroxypropan-2-yl)phenyl)-6H-imidazo[1,5-a]pyrrolo[2,3-e]pyrazin-1-yl)-4-hydroxypyrrolidin-1-yl)ethanone]"
16,30 to 100 nM,"CC(=O)N1C[C@H](O)C[C@@H]1c1nc(-c2ccc3c(c2)OCCO3)c2cnc3[nH]ccc3n12 [F.1.6, 1-((2R,4R)-2-(3-(2,3-dihydrobenzo[b][1,4]dioxin-6-yl)-6H-imidazo[1,5-a]pyrrolo[2,3-e]pyrazin-1-yl)-4-hydroxypyrrolidin-1-yl)ethanone]"
